Experiments:
Format in all cases: cell-based
[1] = tested on: human iPS cells (TkDN4-M cell line); assay: Cell aggregation assay: suspension (swirling) culture of human iPS cells, phase contrast microscopy; conditions: Day 1 of culture; for cell aggregation suppression (aggregate formation observed by microscopy): compared to only Y-27632
Description: TkDN4-M cell lines (Institute of Medical Science, The University of Tokyo) were used as human iPS cells. Human iPS cells were seeded on cell culture dishes coated with Vitronectin (Thermo Fisher Scientific Co., Ltd.) and subjected to a maintenance culture using Essential 8™ (Thermo Fisher Scientific Co., Ltd.) as the culture medium. Accutase (Thermo Fisher Scientific Co., Ltd.) was used as a cell detachment agent during passage. In addition, when the cells were seeded, Y-27632 (Wako Pure Chemical Industries, Ltd.) at a concentration of 10 μM was added to a culture medium. The culture medium was changed every day. For experiments, human iPS cells (the number of passage was 50 or less) were used.
The resulting cells were suspended in Essential 8™ culture medium comprising a final concentration of 5 mg/mL of BSA (Wako Pure Chemical Industries, Ltd.) and 10 μM of Y-27632 (Wako Pure Chemical Industries, Ltd.), and a portion thereof was stained with trypan blue and the number of cells was counted. The cell suspension was prepared so as to contain 2×10^5 cells per mL. […] Then the cells were seeded at a ratio of 1.3 mL/well in a 12-well plate for suspension culture (Sumitomo Bakelite Co., Ltd.). The cell-seeded plate was subjected to a swirling culture on a rotary shaker (OPTIMA, Inc.) at a speed of 90 rpm along the horizontal plane to draw a circle with a swirling width (diameter) of 25 mm, and cells were cultured in suspension under a condition at 5% CO2 and 37° C. At the next day after the start of culture (Day 1 of culture), images were obtained by phase contrast microscopy. A control test was conducted using a cell suspension prepared under the same condition as above except that Y-27632 and TRAP-6 were not added.
(§1) A cell suspension was prepared in the same manner as in Example 2, and separately, the cell aggregation suppressor was adjusted so that the final concentration of TRAP-6 (same as above) was 3.74 mg/mL (10 mM). Then the adjusted cell aggregation suppressor was added to the cell suspension so that the final concentration of the agonist of a thrombin receptor was 5 μM. Then the cells were seeded at a ratio of 4 mL/well in a 6-well plate for suspension culture (Sumitomo Bakelite Co., Ltd.). The cell-seeded plate was subjected to a swirling culture on a rotary shaker (OPTIMA, Inc.) at a speed of 75 rpm along the horizontal plane to draw a circle with a swirling width (diameter) of 25 mm, and cells were cultured in suspension under a condition at 5% CO2 and 37° C. After the next day of culture (Day 1 of culture), the culture medium was exchanged daily for fresh medium (Essential 8™ culture medium containing BSA (Wako Pure Chemical Industries, Ltd.) at a final concentration of 5 mg/mL), and the culture continued until Day 5 of culture. A control test was conducted using a cell suspension prepared under the same condition as described above except that TRAP-6 was not added. Images were obtained by phase contrast microscopy every day during culture. The concentration of glucose contained in the culture supernatant collected at the time of culture medium exchange was measured with biosensor BF-5iD (Prince Measuring Equipment Co., Ltd.) to calculate glucose consumption.
Cell suspensions were prepared in the same manner as in Example 2 using human iPS cells cultured with the protocol of Example 1, and instead of TRAP-6, a PAR-1 agonist (Proteinase Activated Receptor-1; PAR-1 agonist, ANASPEC, AS-62937, a C-terminal amidated peptide consisting of the amino acid sequence of TFLLRN (SEQ ID NO: 8)) was added so that a final concentration thereof was 32.8 μM or S1P (sphingosine-1-phosphate; Cayman, 62570) (positive control) was added so that the final concentration thereof was 0.8 μg/mL). Then, suspension culture and image acquisition were performed in the same manner as in Example 2.

[2] = tested on: human iPS cells (TkDN4-M cell line); assay: Cell yield at Day 5 of suspension culture (trypan blue count); conditions: TRAP-6 5 μM on Day 1, then TRAP-6-free medium; seeded 8×10^5 cells/well
Description: as §1, with “After the next day of culture (Day 1 of culture), the culture medium was exchanged daily for fresh medium (Essential 8™ culture medium containing BSA (Wako Pure Chemical Industries, Ltd.) at a final concentration of 5 mg/mL), and the culture continued until Day 5 of culture. A control test was conducted using a cell suspension prepared under the same condition as described above except that TRAP-6 was not added. Images were obtained by phase contrast microscopy every day during culture.” left out
Cell yields were also measured at Day 5 of culture. […] After that, the number of cells was counted using a hemocytometer to determine the cell yield.

[3] = tested on: human iPS cells (TkDN4-M cell line); assay: Percentage of cells positive for undifferentiation markers (flow cytometry); conditions: Day 5 of culture
Description: as §1
In addition, at Day 5 of culture, cell aggregates were collected, dispersed with Accutase, and then suspended in Essential 8™ culture medium containing 5 mg/mL BSA. A portion of this cell suspension was stained with trypan blue and the number of cells was counted. After the above cell suspensions were centrifuged at 300 g for 3 minutes, the supernatant was then removed, and the cells were washed with PBS (phosphate buffered saline). Next, the cells were fixed with 4% paraformaldehyde (Wako Pure Chemical Industries, Ltd.) at room temperature for 20 minutes, then washed 3 times with PBS. After cells were resuspended with 300 μL of PBS, 3 mL of cold methanol was added while stirring with voltex, and permeabilized at −20° C. overnight or more. After 3 washes with 3% FBS (fetal bovine serum)/PBS, cells were resuspended with 3% FBS (fetal bovine serum)/PBS and blocked at room temperature for 30 minutes to 1 hour. Subsequently, the cells were stained with fluorescently labeled anti-SOX2 antibodies (Cat. No. 656110, BioLegend, Inc.) and fluorescently labeled anti-OCT4 antibodies (Cat. No. 653703, BioLegend, Inc.) and fluorescently labeled anti-Nanog antibodies (Cat. No. 674010, BioLegend, Inc.) at 4° C. for 30 minutes to 1 hour. […] The resulting cells were analyzed on FACSVerse. […]

[4] = tested on: human iPS cells (TkDN4-M cell line); assay: Size distribution of cell aggregates (width of widest portion in micrograph); conditions: TRAP-6 5 μM, Day 1 of culture
Description: as §1
For cells cultured in suspension in the presence of TRAP-6 according to Example 3, 210 cell aggregates in an image acquired at Day 1 of culture were observed and compared using a micrograph scale, the width of the widest portion (referred to as “ϕ”) of each cell aggregate was measured, then distribution thereof was examined, and the average±standard deviation was calculated.

[5] = tested on: human iPS cells (TkDN4-M cell line); assay: Glucose consumption during suspension culture of human iPS cells; conditions: TRAP-6 5 μM on Day 1, then TRAP-6-free medium, Day 1 to Day 5, compared to TRAP-6 non-added condition
Description: as §1, with “A control test was conducted using a cell suspension prepared under the same condition as described above except that TRAP-6 was not added. Images were obtained by phase contrast microscopy every day during culture.” left out

[6] = TRAP-6 5 μM on Day 1, then TRAP-6-free medium

CCCCCCCCCCCCC/C=C/[C@@H](O)[C@@H](N)COP(=O)(O)O [S1P, sphingosine-1-phosphate]
cell aggregation suppression (aggregate formation observed by microscopy) ([1]; S1P 0.8 μg/mL (positive control) with Y-27632 10 μM): aggregation was suppressed and smaller aggregates were formed

C[C@@H](N)[C@H]1CC[C@H](C(=O)Nc2ccncc2)CC1 [Y-27632, 4-[(1R)-1-aminoethyl]-N-pyridin-4-ylcyclohexane-1-carboxamide]
aggregate formation observed by microscopy ([1]; Y-27632 10 μM alone, compared to control without Y-27632): aggregates were formed

Thrombin Receptor Activator for Peptide 6 [TRAP-6]
proliferation of seeded cells (cell yield) at Day 5 of culture [2]: 8.5 fold | cell aggregation suppression (aggregate formation observed by microscopy) ([1]; TRAP-6 2 μM with Y-27632 10 μM): aggregation was suppressed and smaller aggregates were formed | aggregate size observed by microscopy ([1]; TRAP-6 5 μM with Y-27632 10 μM, 6-well plate, 75 rpm, compared to no TRAP-6): formation of smaller aggregates | cell aggregation suppression (aggregate formation observed by microscopy) ([1]; TRAP-6 10 μM with Y-27632 10 μM): aggregation was suppressed and smaller aggregates were formed | cell aggregation suppression (aggregate formation observed by microscopy) ([1]; TRAP-6 50 μM with Y-27632 10 μM): aggregation was suppressed and smaller aggregates were formed | percentage of cells positive for Nanog [3, 6]: ≥ 99% | percentage of cells positive for OCT4 [3, 6]: ≥ 98% | percentage of cells positive for SOX2 [3, 6]: ≥ 99% | undifferentiated state of human iPS cell aggregates ([3]; aggregates formed by addition of Y-27632 and TRAP-6 (5 μM)): remained undifferentiated | percentage of cell aggregates with size (diameter) 40 μm or more and 300 μm or less [4]: 100% | percentage of cell aggregates with size (diameter) 60 μm or more and 300 μm or less [4]: 100% | percentage of cell aggregates with size (diameter) 80 μm or more and 300 μm or less [4]: 98.0% | percentage of cell aggregates with size (diameter) 100 μm or more and 300 μm or less [4]: 97.0% | average±standard deviation of cell aggregate size (diameter) ([4]; 210 cell aggregates): 167.8±35.3 μm | Number of cell aggregates by size ([4]; size range 40- μm): 0 | Percentage of cell aggregates by size ([4]; size range 40- μm): 0% | Number of cell aggregates by size ([4]; size range 60- μm): 4 | Percentage of cell aggregates by size ([4]; size range 60- μm): 2% | Number of cell aggregates by size ([4]; size range 80- μm): 2 | Percentage of cell aggregates by size ([4]; size range 80- μm): 1% | Number of cell aggregates by size ([4]; size range 100- μm): 5 | Percentage of cell aggregates by size ([4]; size range 100- μm): 2% | Number of cell aggregates by size ([4]; size range 120- μm): 25 | Percentage of cell aggregates by size ([4]; size range 120- μm): 12% | Number of cell aggregates by size ([4]; size range 140- μm): 58 | Percentage of cell aggregates by size ([4]; size range 140- μm): 28% | Number of cell aggregates by size ([4]; size range 160- μm): 56 | Percentage of cell aggregates by size ([4]; size range 160- μm): 27% | Number of cell aggregates by size ([4]; size range 180- μm): 31 | Percentage of cell aggregates by size ([4]; size range 180- μm): 15% | Number of cell aggregates by size ([4]; size range 200- μm): 13 | Percentage of cell aggregates by size ([4]; size range 200- μm): 6% | Number of cell aggregates by size ([4]; size range 220- μm): 8 | Percentage of cell aggregates by size ([4]; size range 220- μm): 4% | Number of cell aggregates by size ([4]; size range 240- μm): 3 | Percentage of cell aggregates by size ([4]; size range 240- μm): 1% | Number of cell aggregates by size ([4]; size range 260- μm): 4 | Percentage of cell aggregates by size ([4]; size range 260- μm): 2% | Number of cell aggregates by size ([4]; size range 280- μm): 1 | Percentage of cell aggregates by size ([4]; size range 280- μm): 0% | Number of cell aggregates by size ([4]; size range 300- μm): 0 | Percentage of cell aggregates by size ([4]; size range 300- μm): 0% | glucose consumption [5]: greater than that under the TRAP-6 non-added condition

Reference: patent publication US20210062139A1, “CELL AGGREGATION SUPPRESSOR” (KANEKA CORPORATION, priority 2017, published 2021)
